# Values of other authors, collected in US20020064834A1, “Microbiological production method for alpha-L-aspartyl-L-phenylalanine” (priority 1999, published 2002).
# Residues, ends and D or L forms follow the SMILES beside them.
# Details: relative to sucrose
compound,measurement,value
"COC(=O)[C@H](Cc1ccccc1)NC(=O)[C@@H](N)CC(=O)O [APM, α-L-aspartyl-L-phenylalanine methyl ester] (H-Asp-Phe-OMe)",sweetness as potent as the sweetness of sucrose,about 200 ×
